≈ marks a conversion by molar mass, not a printed value.
Key:
Format in all cases: cell-based
[1] = system: Staphylococcus aureus ATCC 29213; assay: Serial broth microdilution with agar sub-cultivation
[2] = system: Staphylococcus aureus ATCC 6538; assay: as above
[3] = system: Klebsiella pneumoniae MFBF 10402; assay: as above
[4] = system: Enterococcus faecalis ATCC 29212; assay: as above; details: ATCC29212, n.d. = not detected (0.18–11.36 mg/mL)
[5] = system: Bacillus subtilis ATCC 6633; assay: as above
[6] = system: Bacillus cereus ATCC 11778; assay: as above
[7] = system: Pseudomonas aeruginosa ATCC 27853; assay: as above
[8] = system: Escherichia coli ATCC 10536; assay: as above
[9] = system: Klebsiella pneumoniae MFBF 10402; assay: Well diffusion method; details: aerial parts extracts c = 50 mg/mL; antibiotics c = 0.2 mg/mL; n.d. = growth inhibition not detected
Protocol: (§1) Antibacterial activity was evaluated using the following strains: Bacillus cereus American Type Culture Collection (ATCC, Manassas, VA, USA) 11778, B. subtilis ATCC 6633, Enterococcus faecalis ATCC 29212, Staphylococcus aureus ATCC 6538 and S. aureus ATCC 29213 among Gram-positive and Escherichia coli ATCC 10536, Klebsiella pneumoniae MFBF 10402 and Pseudomonas aeruginosa ATCC 27853 among Gram-negative bacterial species. Additionally, eight clinical isolates of S. aureus, including methicillin-resistant S. aureus (MRSA MFB F101, MRSA MFBF 124, MRSA MFBF 154, MRSA MFBF 164, and MRSA MFBF 177) and methicillin susceptible S. aureus (S. aureus MFBF 505, S. aureus MFBF 10661 and S. aureus MFBF 10666) were used. Bacterial strains were sourced from the Collection of Microorganisms, Department of Microbiology, Faculty of Pharmacy and Biochemistry, University of Zagreb. Inoculums were prepared from overnight cultures that were cultured on tryptic soy agar (TSA) at 37 °C, suspended in sterile physiological saline, with the optic density adjusted to 0.5 McFarland (1.5 × 10^8 colony-forming units (CFUs)/mL) using a densitometer (Densimat, BioMérieux, Marcy-l’Étoile, France). Right before cultivation in nutrient medium, 1 mL of each prepared suspension was dissolved with 9 mL physiological saline. Prior to cell treatment, sample stock solutions in distilled water (c = 50 mg/mL) were filtered through Chromafil cellulose acetate filters of pore size 0.22 μm (Macherey-Nagel, Düren, Germany).
(§2) Well diffusion method was carried out according to the European Pharmacopoeia. Inoculums (100 μL) were transferred to individual petri dishes with 4 mm thick Müller–Hinton agar and equally distributed across agar surface with a glass L-stick. Wells were prepared using sterile stainless-steel cylinders (d = 6 mm) and filled with 50 μL of methanolic aerial parts extract solution (c = 50 mg/mL) in distilled water. Plates were incubated at 37 °C for 18 h in the dark. Diameters of the zones of inhibition of bacterial growth (mm) were read from the diameters of transparent zones around the wells. Gentamicin and norfloxacin (c = 0.2 mg/mL) were used as positive controls.

[10] = system: Pseudomonas aeruginosa ATCC 27853; assay: Well diffusion method; details: aerial parts extracts c = 50 mg/mL; antibiotics c = 0.2 mg/mL; n.d. = growth inhibition not detected
Protocol: as §1, §2

[11] = system: Bacillus cereus ATCC 11778; assay: Well diffusion method; details: aerial parts extracts c = 50 mg/mL; antibiotics c = 0.2 mg/mL; n.d. = growth inhibition not detected
Protocol: as §1, §2

[12] = system: Bacillus subtilis ATCC 6633; assay: Well diffusion method; details: aerial parts extracts c = 50 mg/mL; antibiotics c = 0.2 mg/mL; n.d. = growth inhibition not detected
Protocol: as §1, §2

[13] = system: Escherichia coli ATCC 10536; assay: Well diffusion method; details: aerial parts extracts c = 50 mg/mL; antibiotics c = 0.2 mg/mL; n.d. = growth inhibition not detected
Protocol: as §1, §2

[14] = system: Enterococcus faecalis ATCC 29212; assay: Well diffusion method; details: aerial parts extracts c = 50 mg/mL; antibiotics c = 0.2 mg/mL; n.d. = growth inhibition not detected
Protocol: as §1, §2

[15] = system: Staphylococcus aureus ATCC 6538; assay: Well diffusion method; details: aerial parts extracts c = 50 mg/mL; antibiotics c = 0.2 mg/mL
Protocol: as §1, §2

MIC ([1]; ATCC29213, aerial parts extracts, TTC detection): 0.3 µg/mL (≈ 0.628 µM)
MIC ([2]; ATCC6538, aerial parts extracts, TTC detection): 0.6 µg/mL (≈ 1.26 µM)
MIC ([3]; MFBF10402, aerial parts extracts, TTC detection, n.d. = growth inhibition not detected (0.18–11.36 mg/mL)): 0.3 µg/mL (≈ 0.628 µM)
MIC ([5]; ATCC6633, aerial parts extracts, TTC detection, n.d. = growth inhibition not detected (0.18–11.36 mg/mL)): < 0.1 µg/mL
MIC ([6]; ATCC11778, aerial parts extracts, TTC detection, n.d. = growth inhibition not detected (0.18–11.36 mg/mL)): 1.5 µg/mL (≈ 3.14 µM)
MIC ([7]; ATCC27853, aerial parts extracts, TTC detection, n.d. = growth inhibition not detected (0.36–22.73 mg/mL)): 1.1 µg/mL (≈ 2.3 µM)
MIC ([8]; ATCC10536, aerial parts extracts, TTC detection, n.d. = growth inhibition not detected (0.18–11.36 mg/mL)): 0.1 µg/mL (≈ 0.209 µM)
Structure (SMILES): CNC(C)C1CCC(N)C(OC2C(N)CC(N)C(OC3OCC(C)(O)C(NC)C3O)C2O)O1 (stereo not shown) [Gentamicin, gentamicin]
MBC ([1]; ATCC29213, agar sub-cultivation): 0.7 µg/mL (≈ 1.47 µM)
MBC ([2]; ATCC6538, agar sub-cultivation, n.d. = not detected): 0.8 µg/mL (≈ 1.68 µM)
MBC ([3]; MFBF10402, agar sub-cultivation, n.d. = not detected (0.18–11.36 mg/mL)): 0.8 µg/mL (≈ 1.68 µM)
MBC [4]: 4.6 µg/mL (≈ 9.63 µM)
MBC ([5]; ATCC6633, agar sub-cultivation, n.d. = not detected (0.18–11.36 mg/mL)): 0.2 µg/mL (≈ 0.419 µM)
MBC ([6]; ATCC11778, agar sub-cultivation, n.d. = not detected (0.18–11.36 mg/mL)): 1.5 µg/mL (≈ 3.14 µM)
MBC ([7]; ATCC27853, agar sub-cultivation, n.d. = not detected (0.36–22.73 mg/mL)): 3 µg/mL (≈ 6.28 µM)
MBC ([8]; ATCC10536, agar sub-cultivation, n.d. = not detected (0.18–11.36 mg/mL)): 1.5 µg/mL (≈ 3.14 µM)
growth inhibition zone [9]: 21.0 ± 0.0 mm
growth inhibition zone [10]: 24.3 ± 0.6 mm
growth inhibition zone [11]: 22.3 ± 0.6 mm
growth inhibition zone [12]: 24.7 ± 0.6 mm
growth inhibition zone [13]: 23.3 ± 0.6 mm
growth inhibition zone [14]: 15.0 ± 0.0 mm
growth inhibition zone [15]: 24.0 ± 0.0 mm
